Assay results: patent US20230285292A1, “COMPOSITIONS AND METHODS OF USING A PLA2-RESPONSIVE DRUG DELIVERY SYSTEM” (THE TRUSTEES OF THE UNIVERSITY OF PENNSYLVANIA, priority 2020, published 2023)

How the values were obtained:
[1] = tested on: load-induced OA knee joints; assay: Single load-induced PTOA model, histology and TUNEL; assay type: in vivo, mouse; conditions: 6 N or 9 N loading, two weeks
Excerpt: To induce mouse OA that is noninvasive and mimics post-traumatic OA in human patients, male mice (2 months old) were subjected mechanic loading at the right knees and sham loading at left knees. Briefly, under anesthesia, the right tibiae were positioned with the knee downward in deep flexion between custom-made cups and subjected to axial compressive loads with a peak force of 6 or 9 Newtons (N) with a 0.5 N preload force to maintain the limb in position between loading cycles. Cyclic loads were applied for 0.34 s with a rise and fall time each of 0.17 s and a baseline hold time of 10 s between cycles for 60 cycles. The uninjured left knees were used as controls. […] For DMM surgical OA model, the first injection was performed immediately after surgery. Injections were then repeated every 2 weeks for 2 or 4 months. In total, there are 4 injections for the 2 months group and 8 injections for 4 months group. For load-induced OA model, injections (i.a.) were performed immediately and at 48 hours after loading. There are 2 injections in total for each mouse in this model. […] Cartilage injury length was measured in Safranin 0/Fast green stained paraffin sections. […] According to these histological changes, it is possible to identify the demarcation between the normal and injured cartilage tissue, and the length of the cartilage lesion range was measured. […]

[2] = Toxicity in mice after 2-month serial intra-articular injections; assay type: in vivo, mouse
Excerpt: After 2 months treatment for DMM mice, some major organs (kidney, liver, lung, heart, and spleen) and blood were collected. Tissue sections were stained with hematoxylin and eosin (H&E) to assess the effects of different treatment on mouse organ morphology.

[3] = tested on: load-induced OA knee joints; assay: Single load-induced PTOA model, von Frey pain analysis; assay type: in vivo, mouse; conditions: 6 N or 9 N loading
Excerpt: To induce mouse OA that is noninvasive and mimics post-traumatic OA in human patients, male mice (2 months old) were subjected mechanic loading at the right knees and sham loading at left knees. Briefly, under anesthesia, the right tibiae were positioned with the knee downward in deep flexion between custom-made cups and subjected to axial compressive loads with a peak force of 6 or 9 Newtons (N) with a 0.5 N preload force to maintain the limb in position between loading cycles. Cyclic loads were applied for 0.34 s with a rise and fall time each of 0.17 s and a baseline hold time of 10 s between cycles for 60 cycles. The uninjured left knees were used as controls. […] For DMM surgical OA model, the first injection was performed immediately after surgery. Injections were then repeated every 2 weeks for 2 or 4 months. In total, there are 4 injections for the 2 months group and 8 injections for 4 months group. For load-induced OA model, injections (i.a.) were performed immediately and at 48 hours after loading. […] The knee joint pain after DMM surgery or loading injury was evaluated in mice weekly before and after surgery using von Frey filaments as described previously(38). […] The threshold force required to elicit withdrawal of the paw (median 50% withdrawal) was determined five times on each hind paw with sequential measurements separated by at least 5 minutes.

[4] = tested on: DMM-induced OA knee joints; assay: DMM surgery-induced OA model, histology and microCT; assay type: in vivo, mouse; conditions: for morphology and structure of articular cartilage / cartilage degeneration: intra-articular injection once every two weeks starting immediately after DMM, 2 and 4 months
Excerpt: To induce mouse OA that mimics chronic OA in human patients, male mice at 3 months of age were subjected to DMM surgery at right knees and sham surgery at left knees. Briefly, in DMM surgery, the joint capsule was opened immediately after anesthesia and the medial meniscotibial ligament was cut to destabilize the meniscus without damaging other tissues. In Sham surgery, the joint capsule was opened in the same fashion but without any further damage. […] For DMM surgical OA model, the first injection was performed immediately after surgery. Injections were then repeated every 2 weeks for 2 or 4 months. In total, there are 4 injections for the 2 months group and 8 injections for 4 months group. For load-induced OA model, injections (i.a.) were performed immediately and at 48 hours after loading. There are 2 injections in total for each mouse in this model. After euthanasia, mouse knee joints were harvested and fixed in 4% paraformaldehyde overnight followed by decalcification in 0.5 M EDTA (pH 7.4) for 4 weeks prior to paraffin embedding. A serial of 6 μm-thick sagittal sections (about 100) were cut across the entire medial compartment of the joint until ACL junction. […] The final measurement is an average of these three sections. We defined uncalcified cartilage as the area from articular surface to the tide mark and calcified cartilage as the area from tide mark to cement line. The method to measure Mankin Score was described previously(37). Briefly, two sections within every consecutive six sections in the entire section set for each knee were stained with Safranin 0/Fast green and scored by two blinded observers. Each knee received a single score representing the maximal score of its sections. Synovitis score grading was carried out in 6-μm paraffin sections of sagittal mouse knee sections stained with H&E. The following basic morphological parameters of synovitis were included: (i) hyperplasia/enlargement of synovial lining layer, (ii) degree of inflammatory infiltration and (iii) activation of resident cells/synovial stroma, including fibroblasts, endothelial cells, histiocytes, macrophages, and multinucleated giant cells. All parameters are graded from 0 (absent), 1 (slight), 2 (moderate) to 3 (strong positive). The distal femur of mouse knee joints was scanned at a 6-μm isotropic voxel size with a microCT 35 scanner (Scanco Medical AG, Brüttisellen, Switzerland). All images were smoothened by a Gaussian filter (sigma=1.2, support=2.0). Measurement of SBP thickness was described previously(39). […] The region of interest (ROI) was circled and the average SBP thickness within ROI is calculated by average grey value/255*max scale bar value. […]

[5] = tested on: DMM-induced OA knee joints; assay: DMM surgery-induced OA model, von Frey pain analysis; assay type: in vivo, mouse; conditions: DMM knees; from 2 weeks post-surgery throughout experimental period
Excerpt: To induce mouse OA that mimics chronic OA in human patients, male mice at 3 months of age were subjected to DMM surgery at right knees and sham surgery at left knees. Briefly, in DMM surgery, the joint capsule was opened immediately after anesthesia and the medial meniscotibial ligament was cut to destabilize the meniscus without damaging other tissues. In Sham surgery, the joint capsule was opened in the same fashion but without any further damage. […] For DMM surgical OA model, the first injection was performed immediately after surgery. Injections were then repeated every 2 weeks for 2 or 4 months. In total, there are 4 injections for the 2 months group and 8 injections for 4 months group. For load-induced OA model, injections (i.a.) were performed immediately and at 48 hours after loading. There are 2 injections in total for each mouse in this model. The knee joint pain after DMM surgery or loading injury was evaluated in mice weekly before and after surgery using von Frey filaments as described previously(38). An individual mouse was placed on a wire-mesh platform (Excellent Technology Co.) under a 4×3×7 cm cage to restrict their move. […] The threshold force required to elicit withdrawal of the paw (median 50% withdrawal) was determined five times on each hind paw with sequential measurements separated by at least 5 minutes.

[6] = tested on: chronic constriction of the sciatic nerve; conditions: intrathecal, given 1 day after chronic constriction of the sciatic nerve, only under daily repeated dosing; cited from earlier work

SMILES | length of cartilage injury [1] | synovitis scores [1] | blood parameters (hematology, renal and liver function, serum electrolytes) ([2]; 2-month serial injections) | histopathology of liver, spleen, kidney, lung, heart and knee joint ([2]; two months after serial intra-articular injections) | pain threshold / OA pain (von Frey) [3] | increase of SBP thickness at femoral medial site compared to sham joints ([4]; 4 months after DMM surgery) | increase in synovitis score compared with sham knees ([4]; DMM knees, 2-month treatment) | morphology and structure of articular cartilage / cartilage degeneration [4] | morphology and structure of articular cartilage / cartilage degeneration ([4]; listed as free sPLA2i) | mechanical threshold / OA pain (von Frey) [5] | behavioral sensitivity [6]
CCCCCCCCCCCCCCCCSCC(COP(=O)([O-])OCC[N+](C)(C)C)NC(=O)CCCCCCCCCCCCCCC (centres unmarked) [sPLA2i, 1-Palmitylthio-2-palmitoylamido-1,2-dideoxy-sn-glycero-3-phosphorylcholine] | significant damage areas | significant synovitis | no significant difference | did not observe any histopathological abnormalities | experienced OA pain | 1.31 fold | more than 10 fold | did not have a protective effect | not observed | did not alter the OA pain | –
CCCCC/C=C\C/C=C\C/C=C\C/C=C\CCCC(=O)C(F)(F)F [AACOCF3] | – | – | – | – | – | – | – | – | – | – | reduces behavioral sensitivity
